In article PMC9856672, “SGC-CAMKK2-1: A Chemical Probe for CAMKK2” (Cells, 2023):

Legend:
PAK4 = molecular target: T1, PAK4 (Homo sapiens, UniProt O96013); test: KINOMEscan 1 μM, PAK4; assay type: binding; conditions: 1000 nM; Entrez PAK4; read-out: Percent Control
T1 construct: purchased Eurofins DiscoverX KINOMEscan
Source text: (§1) Supplement cells-12-00287-s001.zip/File S2. KinomeScan data for the CAMKK2 probe and negative control.xlsx, sheet "SGC-CAMKK2-1" | column: Percent Control

CASK = molecular target: T2, CASK (Homo sapiens, UniProt O14936); test: KINOMEscan 1 μM, CASK; assay type: binding; conditions: 1000 nM; Entrez CASK; read-out: Percent Control
T2 construct: purchased Eurofins DiscoverX KINOMEscan
Source text: as §1

TRKC = molecular target: T3, TRKC (Homo sapiens, UniProt Q16288); test: KINOMEscan 1 μM, TRKC; assay type: binding; conditions: 1000 nM; Entrez NTRK3; read-out: Percent Control
T3 construct: purchased Eurofins DiscoverX KINOMEscan
Source text: as §1

LIMK2 = molecular target: T4, LIMK2 (Homo sapiens, UniProt P53671); test: KINOMEscan 1 μM, LIMK2; assay type: binding; conditions: 1000 nM; Entrez LIMK2; read-out: Percent Control
T4 construct: purchased Eurofins DiscoverX KINOMEscan
Source text: as §1

CAMK1 = molecular target: T5, CAMK1 (Homo sapiens, UniProt Q14012); test: KINOMEscan 1 μM, CAMK1; assay type: binding; conditions: 1000 nM; Entrez CAMK1; read-out: Percent Control
T5 construct: purchased Eurofins DiscoverX KINOMEscan
T5 sequence (Q14012 whole entry): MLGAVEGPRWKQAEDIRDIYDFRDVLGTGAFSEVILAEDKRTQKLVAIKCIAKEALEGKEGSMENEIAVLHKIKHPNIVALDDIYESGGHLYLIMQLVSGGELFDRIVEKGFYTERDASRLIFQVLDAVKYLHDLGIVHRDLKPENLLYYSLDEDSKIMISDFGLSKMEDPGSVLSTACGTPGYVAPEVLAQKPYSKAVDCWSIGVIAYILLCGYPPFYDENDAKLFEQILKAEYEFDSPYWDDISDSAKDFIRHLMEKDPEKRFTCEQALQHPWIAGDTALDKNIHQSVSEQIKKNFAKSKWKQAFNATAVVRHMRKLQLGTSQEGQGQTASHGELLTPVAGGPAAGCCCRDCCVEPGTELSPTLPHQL
Source text: as §1

RET(V804L) = molecular target: T6, RET(V804L) (Homo sapiens, UniProt P07949, V804L); test: KINOMEscan 1 μM, RET(V804L); assay type: binding; conditions: 1000 nM; Entrez RET; read-out: Percent Control
T6 construct: purchased Eurofins DiscoverX KINOMEscan
Source text: as §1

EPHB3 = molecular target: T7, EPHB3 (Homo sapiens, UniProt P54753); test: KINOMEscan 1 μM, EPHB3; assay type: binding; conditions: 1000 nM; Entrez EPHB3; read-out: Percent Control
T7 construct: purchased Eurofins DiscoverX KINOMEscan
Source text: as §1

CDK4-cyclinD3 = molecular target: T8, CDK4-cyclinD3 (Homo sapiens, UniProt P11802); test: KINOMEscan 1 μM, CDK4-cyclinD3; assay type: binding; conditions: 1000 nM; Entrez CDK4; read-out: Percent Control
T8 construct: purchased Eurofins DiscoverX KINOMEscan
Source text: as §1

EIF2AK1 = molecular target: T9, EIF2AK1 (Homo sapiens, UniProt Q9BQI3); test: KINOMEscan 1 μM, EIF2AK1; assay type: binding; conditions: 1000 nM; Entrez EIF2AK1; read-out: Percent Control
T9 construct: purchased Eurofins DiscoverX KINOMEscan
Source text: as §1

ERK8 = molecular target: T10, ERK8 (Homo sapiens, UniProt Q8TD08); test: KINOMEscan 1 μM, ERK8; assay type: binding; conditions: 1000 nM; Entrez MAPK15; read-out: Percent Control
T10 construct: purchased Eurofins DiscoverX KINOMEscan
Source text: as §1

FLT3(D835V) = molecular target: T11, FLT3(D835V) (Homo sapiens, UniProt P36888, D835V); test: KINOMEscan 1 μM, FLT3(D835V); assay type: binding; conditions: 1000 nM; Entrez FLT3; read-out: Percent Control
T11 construct: purchased Eurofins DiscoverX KINOMEscan
Source text: as §1

FLT3(ITD,F691L) = test: KINOMEscan 1 μM, FLT3(ITD,F691L); assay type: binding, human; conditions: 1000 nM; Entrez FLT3
Source text: as §1

IRAK4 = molecular target: T12, IRAK4 (Homo sapiens, UniProt Q9NWZ3); test: KINOMEscan 1 μM, IRAK4; assay type: binding; conditions: 1000 nM; Entrez IRAK4; read-out: Percent Control
T12 construct: purchased Eurofins DiscoverX KINOMEscan
T12 sequence (Q9NWZ3 whole entry): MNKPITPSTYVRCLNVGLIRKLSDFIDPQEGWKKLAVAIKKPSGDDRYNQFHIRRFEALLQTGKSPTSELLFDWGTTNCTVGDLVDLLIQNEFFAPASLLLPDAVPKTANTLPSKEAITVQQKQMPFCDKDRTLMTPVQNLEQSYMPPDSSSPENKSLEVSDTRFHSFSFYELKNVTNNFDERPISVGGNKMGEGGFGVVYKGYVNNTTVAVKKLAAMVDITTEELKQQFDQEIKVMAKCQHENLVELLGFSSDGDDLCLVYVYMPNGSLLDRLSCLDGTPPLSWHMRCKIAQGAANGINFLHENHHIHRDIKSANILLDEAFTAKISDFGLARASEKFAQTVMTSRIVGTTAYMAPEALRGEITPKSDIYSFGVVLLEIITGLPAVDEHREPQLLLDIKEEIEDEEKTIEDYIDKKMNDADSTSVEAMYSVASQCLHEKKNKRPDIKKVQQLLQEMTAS
Source text: as §1

KIT(L576P) = molecular target: T13, KIT(L576P) (Homo sapiens, UniProt P10721, L576P); test: KINOMEscan 1 μM, KIT(L576P); assay type: binding; conditions: 1000 nM; Entrez KIT; read-out: Percent Control
T13 construct: purchased Eurofins DiscoverX KINOMEscan
T13 sequence (P10721 26-976 L576P): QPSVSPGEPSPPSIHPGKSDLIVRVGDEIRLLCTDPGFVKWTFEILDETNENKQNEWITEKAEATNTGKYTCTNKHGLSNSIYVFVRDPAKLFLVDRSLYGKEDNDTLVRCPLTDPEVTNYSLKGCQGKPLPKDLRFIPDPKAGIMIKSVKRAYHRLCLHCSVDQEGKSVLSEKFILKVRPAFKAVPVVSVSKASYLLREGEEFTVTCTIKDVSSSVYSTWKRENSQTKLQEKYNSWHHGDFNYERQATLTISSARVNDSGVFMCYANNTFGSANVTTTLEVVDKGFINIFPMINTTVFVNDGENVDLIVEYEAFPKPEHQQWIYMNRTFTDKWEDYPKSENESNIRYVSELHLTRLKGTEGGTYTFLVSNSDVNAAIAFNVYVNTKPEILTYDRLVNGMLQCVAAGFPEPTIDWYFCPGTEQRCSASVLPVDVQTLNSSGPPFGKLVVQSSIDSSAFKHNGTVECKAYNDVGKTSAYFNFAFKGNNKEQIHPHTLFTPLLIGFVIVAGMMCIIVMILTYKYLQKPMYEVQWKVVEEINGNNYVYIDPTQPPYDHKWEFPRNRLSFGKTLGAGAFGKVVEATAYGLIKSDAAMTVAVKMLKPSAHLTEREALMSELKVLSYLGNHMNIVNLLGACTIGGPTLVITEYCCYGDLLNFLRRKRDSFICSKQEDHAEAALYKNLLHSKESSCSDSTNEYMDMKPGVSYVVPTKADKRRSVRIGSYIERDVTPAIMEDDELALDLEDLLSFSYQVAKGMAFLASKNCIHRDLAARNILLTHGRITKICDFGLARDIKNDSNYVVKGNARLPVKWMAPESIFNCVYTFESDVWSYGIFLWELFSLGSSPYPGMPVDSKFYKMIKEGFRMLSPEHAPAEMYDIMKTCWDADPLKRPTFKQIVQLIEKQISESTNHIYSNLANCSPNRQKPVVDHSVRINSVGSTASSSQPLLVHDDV
Source text: as §1

MARK1 = molecular target: T14, MARK1 (Homo sapiens, UniProt Q9P0L2); test: KINOMEscan 1 μM, MARK1; assay type: binding; conditions: 1000 nM; Entrez MARK1; read-out: Percent Control
T14 construct: purchased Eurofins DiscoverX KINOMEscan
Source text: as §1

ZAP70 = molecular target: T15, ZAP70 (Homo sapiens, UniProt P43403); test: DiscoverX KINOMEscan binding assay at 1 μM, ZAP70; conditions: Compound Concentration 1000 nM, read-out: Percent Control
T15 construct: purchased Eurofins DiscoverX KINOMEscan
T15 sequence (P43403 whole entry): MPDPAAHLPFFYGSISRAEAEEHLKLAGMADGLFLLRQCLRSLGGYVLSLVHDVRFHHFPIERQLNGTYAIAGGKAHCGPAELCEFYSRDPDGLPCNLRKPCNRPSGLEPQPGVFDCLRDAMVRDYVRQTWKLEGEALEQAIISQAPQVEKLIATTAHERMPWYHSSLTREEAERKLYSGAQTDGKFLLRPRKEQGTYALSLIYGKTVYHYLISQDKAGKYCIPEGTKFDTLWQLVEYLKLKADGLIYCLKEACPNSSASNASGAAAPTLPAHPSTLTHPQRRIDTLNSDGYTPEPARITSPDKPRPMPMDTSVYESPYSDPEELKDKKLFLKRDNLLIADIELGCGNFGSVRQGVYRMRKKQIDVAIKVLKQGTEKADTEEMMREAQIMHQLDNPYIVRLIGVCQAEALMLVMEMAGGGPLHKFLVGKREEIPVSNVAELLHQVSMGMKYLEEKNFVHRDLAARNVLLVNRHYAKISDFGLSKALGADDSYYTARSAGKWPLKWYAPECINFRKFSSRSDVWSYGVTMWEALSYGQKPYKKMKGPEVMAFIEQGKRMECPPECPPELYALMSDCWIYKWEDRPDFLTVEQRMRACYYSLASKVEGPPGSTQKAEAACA
Source text: as §1

TESK1 = molecular target: T16, TESK1 (Homo sapiens, UniProt Q15569); test: KINOMEscan at 1 μM, TESK1; assay type: binding; conditions: 1000 nM, read-out: Percent Control
T16 construct: purchased Eurofins DiscoverX KINOMEscan
Source text: (§2) Supplement cells-12-00287-s001.zip/File S2. KinomeScan data for the CAMKK2 probe and negative control.xlsx, sheet "SGC-CAMKK2-1N" | column: Percent Control

DAPK2 = molecular target: T17, DAPK2 (Homo sapiens, UniProt Q9UIK4); test: KINOMEscan at 1 μM, DAPK2; assay type: binding; conditions: 1000 nM, read-out: Percent Control
T17 construct: purchased Eurofins DiscoverX KINOMEscan
Source text: as §2

TLK2 = molecular target: T18, TLK2 (Homo sapiens, UniProt Q86UE8); test: KINOMEscan at 1 μM, TLK2; assay type: binding; conditions: 1000 nM, read-out: Percent Control
T18 construct: purchased Eurofins DiscoverX KINOMEscan
Source text: as §2

KIT(A829P) = molecular target: T19, KIT(A829P) (Homo sapiens, UniProt P10721, A829P); test: KINOMEscan at 1 μM, KIT(A829P); assay type: binding; conditions: 1000 nM, read-out: Percent Control
T19 construct: purchased Eurofins DiscoverX KINOMEscan
T19 sequence (P10721 26-976 A829P): as the sequence (P10721 26-976 L576P) above, with P551L, A804P counted along it
Source text: as §2

[1] = molecular target: T20, JAK3(JH1domain-catalytic) (Homo sapiens, UniProt P52333); test: KINOMEscan at 1 μM, JAK3(JH1domain-catalytic); assay type: binding; conditions: 1000 nM, read-out: Percent Control
T20 construct: JAK3(JH1domain-catalytic); purchased Eurofins DiscoverX KINOMEscan
Source text: as §2

MET(Y1235D) = molecular target: T21, MET(Y1235D) (Homo sapiens, UniProt P08581, Y1235D); test: KINOMEscan at 1 μM, MET(Y1235D); assay type: binding; conditions: 1000 nM, read-out: Percent Control
T21 construct: purchased Eurofins DiscoverX KINOMEscan
T21 sequence (P08581 25-1390 Y1235D): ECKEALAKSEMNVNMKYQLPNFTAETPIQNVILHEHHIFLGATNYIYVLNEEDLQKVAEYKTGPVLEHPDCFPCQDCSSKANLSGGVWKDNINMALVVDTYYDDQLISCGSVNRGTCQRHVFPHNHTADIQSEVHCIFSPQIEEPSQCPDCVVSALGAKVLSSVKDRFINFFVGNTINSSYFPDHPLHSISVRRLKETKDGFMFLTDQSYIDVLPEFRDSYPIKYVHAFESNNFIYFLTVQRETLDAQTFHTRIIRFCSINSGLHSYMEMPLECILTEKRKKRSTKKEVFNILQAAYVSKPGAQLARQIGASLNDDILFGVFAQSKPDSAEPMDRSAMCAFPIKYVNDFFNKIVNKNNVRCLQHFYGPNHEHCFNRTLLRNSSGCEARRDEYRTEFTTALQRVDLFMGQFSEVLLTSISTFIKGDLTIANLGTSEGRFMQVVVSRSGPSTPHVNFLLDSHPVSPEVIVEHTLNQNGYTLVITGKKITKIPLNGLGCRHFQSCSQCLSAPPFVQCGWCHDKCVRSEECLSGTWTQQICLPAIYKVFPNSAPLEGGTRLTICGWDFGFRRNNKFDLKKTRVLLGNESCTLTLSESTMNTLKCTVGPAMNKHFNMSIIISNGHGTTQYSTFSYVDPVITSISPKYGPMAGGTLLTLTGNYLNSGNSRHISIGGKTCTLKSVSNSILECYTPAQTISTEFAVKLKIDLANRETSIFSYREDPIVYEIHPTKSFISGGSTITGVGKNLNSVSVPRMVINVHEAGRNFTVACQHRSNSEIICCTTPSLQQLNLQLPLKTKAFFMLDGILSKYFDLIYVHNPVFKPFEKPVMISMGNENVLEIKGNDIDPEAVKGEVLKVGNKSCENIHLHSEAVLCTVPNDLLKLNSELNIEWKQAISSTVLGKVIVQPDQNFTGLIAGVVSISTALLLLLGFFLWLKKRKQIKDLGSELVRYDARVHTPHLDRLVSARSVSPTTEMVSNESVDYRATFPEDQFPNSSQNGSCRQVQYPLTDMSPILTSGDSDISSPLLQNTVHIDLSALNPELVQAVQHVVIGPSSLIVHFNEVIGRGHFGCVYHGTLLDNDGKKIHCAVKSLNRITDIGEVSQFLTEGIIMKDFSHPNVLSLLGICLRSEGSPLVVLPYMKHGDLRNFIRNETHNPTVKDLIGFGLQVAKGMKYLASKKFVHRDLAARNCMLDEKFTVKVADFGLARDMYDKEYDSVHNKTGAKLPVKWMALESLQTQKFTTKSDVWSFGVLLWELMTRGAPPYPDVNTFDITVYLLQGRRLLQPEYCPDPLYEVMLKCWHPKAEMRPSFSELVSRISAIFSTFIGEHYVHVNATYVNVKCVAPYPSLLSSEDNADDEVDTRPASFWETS
Source text: as §2

MEK1 = molecular target: T22, MEK1 (Homo sapiens, UniProt Q02750); test: KINOMEscan at 1 μM, MEK1; assay type: binding; conditions: 1000 nM, read-out: Percent Control
T22 construct: purchased Eurofins DiscoverX KINOMEscan
T22 sequence (Q02750 whole entry): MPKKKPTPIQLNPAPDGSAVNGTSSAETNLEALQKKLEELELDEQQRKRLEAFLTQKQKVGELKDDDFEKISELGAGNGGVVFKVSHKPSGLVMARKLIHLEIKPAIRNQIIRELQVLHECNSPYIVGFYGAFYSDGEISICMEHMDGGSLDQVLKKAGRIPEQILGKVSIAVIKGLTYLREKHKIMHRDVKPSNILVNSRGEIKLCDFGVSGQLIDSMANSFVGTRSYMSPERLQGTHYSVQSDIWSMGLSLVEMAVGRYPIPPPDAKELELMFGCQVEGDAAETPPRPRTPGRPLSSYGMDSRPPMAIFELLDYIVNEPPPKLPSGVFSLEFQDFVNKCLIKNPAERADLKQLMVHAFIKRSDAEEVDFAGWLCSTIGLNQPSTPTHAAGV
Source text: as §2

SIK2 = molecular target: T23, SIK2 (Homo sapiens, UniProt Q9H0K1); test: KINOMEscan at 1 μM, SIK2; assay type: binding; conditions: 1000 nM, read-out: Percent Control
T23 construct: purchased Eurofins DiscoverX KINOMEscan
Source text: as §2

NIK = molecular target: T24, NIK (Homo sapiens, UniProt Q99558); test: KINOMEscan at 1 μM, NIK; assay type: binding; conditions: 1000 nM, read-out: Percent Control
T24 construct: purchased Eurofins DiscoverX KINOMEscan
Source text: as §2

CSNK1G1 = molecular target: T25, CSNK1G1 (Homo sapiens, UniProt Q9HCP0); test: KINOMEscan at 1 μM, CSNK1G1; assay type: binding; conditions: 1000 nM, read-out: Percent Control
T25 construct: purchased Eurofins DiscoverX KINOMEscan
Source text: as §2

TEC = molecular target: T26, TEC (Homo sapiens, UniProt P42680); test: KINOMEscan at 1 μM, TEC; assay type: binding; conditions: 1000 nM, read-out: Percent Control
T26 construct: purchased Eurofins DiscoverX KINOMEscan
T26 sequence (P42680 whole entry): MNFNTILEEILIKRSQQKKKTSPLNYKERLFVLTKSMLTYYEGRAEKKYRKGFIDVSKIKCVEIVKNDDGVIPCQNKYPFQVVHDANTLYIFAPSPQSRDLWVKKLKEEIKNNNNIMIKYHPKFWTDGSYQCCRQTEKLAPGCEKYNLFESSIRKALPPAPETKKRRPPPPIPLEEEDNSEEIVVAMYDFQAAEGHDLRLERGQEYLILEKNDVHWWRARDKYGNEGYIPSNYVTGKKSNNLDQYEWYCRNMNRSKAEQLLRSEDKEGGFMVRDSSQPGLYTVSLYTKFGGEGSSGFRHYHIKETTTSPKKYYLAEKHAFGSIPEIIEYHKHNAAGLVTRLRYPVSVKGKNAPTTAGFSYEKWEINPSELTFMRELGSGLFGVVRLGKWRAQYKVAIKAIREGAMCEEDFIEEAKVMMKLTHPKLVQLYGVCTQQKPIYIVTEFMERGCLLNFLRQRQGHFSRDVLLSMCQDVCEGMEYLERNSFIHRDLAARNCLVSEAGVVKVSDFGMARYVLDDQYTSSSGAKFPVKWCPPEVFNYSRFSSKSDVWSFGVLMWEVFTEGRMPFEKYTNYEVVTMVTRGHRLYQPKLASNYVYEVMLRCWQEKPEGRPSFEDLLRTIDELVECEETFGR
Source text: as §2

ABL2 = molecular target: T27, ABL2 (Homo sapiens, UniProt P42684); test: KINOMEscan at 1 μM, ABL2; assay type: binding; conditions: 1000 nM, read-out: Percent Control
T27 construct: purchased Eurofins DiscoverX KINOMEscan
Source text: as §2

EGFR(L858R) = molecular target: T28, EGFR(L858R) (Homo sapiens, UniProt P00533, L858R); test: KINOMEscan binding assay at 1 μM, EGFR(L858R); conditions: Compound Concentration 1000 nM; read-out: Percent Control
T28 construct: purchased Eurofins DiscoverX KINOMEscan
Source text: as §2

FLT3(K663Q) = molecular target: T29, FLT3(K663Q) (Homo sapiens, UniProt P36888, K663Q); test: KINOMEscan binding assay at 1 μM, FLT3(K663Q); conditions: Compound Concentration 1000 nM; read-out: Percent Control
T29 construct: purchased Eurofins DiscoverX KINOMEscan
Source text: as §2

LYN = molecular target: T30, LYN (Homo sapiens, UniProt P07948); test: KINOMEscan binding assay at 1 μM, LYN; conditions: Compound Concentration 1000 nM; read-out: Percent Control
T30 construct: purchased Eurofins DiscoverX KINOMEscan
Source text: as §2

MAPKAPK2 = molecular target: T31, MAPKAPK2 (Homo sapiens, UniProt P49137); test: KINOMEscan binding assay at 1 μM, MAPKAPK2; conditions: Compound Concentration 1000 nM; read-out: Percent Control
T31 construct: purchased Eurofins DiscoverX KINOMEscan
Source text: as §2

MLK3 = molecular target: T32, MLK3 (Homo sapiens, UniProt Q16584); test: KINOMEscan binding assay at 1 μM, MLK3; conditions: Compound Concentration 1000 nM; read-out: Percent Control
T32 construct: purchased Eurofins DiscoverX KINOMEscan
Source text: as §2

RET = molecular target: T33, RET (Homo sapiens, UniProt P07949); test: KINOMEscan binding assay at 1 μM, RET; conditions: Compound Concentration 1000 nM; read-out: Percent Control
T33 construct: purchased Eurofins DiscoverX KINOMEscan
Source text: as §2

SMILES: Cc1cccc(-c2cnc3occ(-c4ccc(C(=O)O)c(C5CCCC5)c4)c3c2)c1 [SGC-CAMKK2-1 (YL-36)]
- remaining binding at 1 µM (PAK4): 69%
- remaining binding at 1 µM (CASK): 79%
- remaining binding at 1 µM (TRKC): 81%
- remaining binding at 1 µM (LIMK2): 86%
- remaining binding at 1 µM (CAMK1): 89%
- remaining binding at 1 µM (RET(V804L)): 94%
- remaining binding at 1 µM (EPHB3): 96%
- remaining binding at 1 µM (CDK4-cyclinD3): 100%
- remaining binding at 1 µM (EIF2AK1): 100%
- remaining binding at 1 µM (ERK8): 100%
- remaining binding at 1 µM (FLT3(D835V)): 100%
- Percent Control (FLT3(ITD,F691L)): 100%
- remaining binding at 1 µM (IRAK4): 100%
- remaining binding at 1 µM (KIT(L576P)): 100%
- remaining binding at 1 µM (MARK1): 100%
- remaining binding at 1 µM (ZAP70): 100%

SMILES: O=C(O)c1ccc(-c2coc3ncc(-c4ccccc4)cc23)cc1Cl [SGC-CAMKK2-1N (UNC-YL-83)]
- remaining binding at 1 µM (TESK1): 59%
- remaining binding at 1 µM (DAPK2): 70%
- remaining binding at 1 µM (TLK2): 77%
- remaining binding at 1 µM (KIT(A829P)): 86%
- remaining binding at 1 µM [1]: 87%
- remaining binding at 1 µM (MET(Y1235D)): 91%
- remaining binding at 1 µM (MEK1): 93%
- remaining binding at 1 µM (SIK2): 93%
- remaining binding at 1 µM (NIK): 94%
- remaining binding at 1 µM (CSNK1G1): 95%
- remaining binding at 1 µM (TEC): 96%
- remaining binding at 1 µM (ABL2): 100%
- remaining binding at 1 µM (EGFR(L858R)): 100%
- remaining binding at 1 µM (FLT3(K663Q)): 100%
- remaining binding at 1 µM (LYN): 100%
- remaining binding at 1 µM (MAPKAPK2): 100%
- remaining binding at 1 µM (MLK3): 100%
- remaining binding at 1 µM (RET): 100%
